Here are results for two compounds from patent US20220228985A1, “FLUORESCENT COMPOSITION FOR DETECTING BIOLOGICAL MATERIAL” (Bioacts Corporation, priority 2021, published 2022).

For this test, the system named is red blood cells. Kind of test: Microscopic analysis of hemolytic efficacy of surfactant compound. Type of test: cell-based. As to conditions: E-check (low concentration), microscope X200 DIC, control PBS, FIG. 4. Here is the method:
Microscopic analysis was performed to visually confirm the blood hemolysis effect of the blood analysis reagent prepared with the compound of Chemical Formula 3 and the compound of Chemical Formula 4 as the surfactant compound. The blood analysis reagent prepared in E-check (low concentration), a quality control reagent, was treated and microscopic analysis was performed. The analysis was performed with a Nikon ECLIPSE microscope, and measured under X200 DIC filter conditions. As a control, a sample obtained by treating PBS in an E-check reagent was used.

Structures are written as SMILES.

`CCCCCCCCn1cc(COCCOCCOCCOCCOCCOCCOCCOCCOCCOCCO)nn1` [Compound 3b]: the “hemolysis of red blood cells” value was “most cleanly hemolyzed”.
Regarding `CCCCCCCCCCCCCCn1cc(COCCOCCOCCOCCOCCOCCOCCOCCOCCOCCOCCOCCOCCOCCOCCOCCOCCOCCOCCOCCOCCO)nn1` [Chemical Formula 4], the “hemolysis of red blood cells” value is “excellent efficacy in hemolysis of red blood cells”.
